Measured values published in patent US11110158B2, “Prostate-associated antigens and vaccine-based immunotherapy regimens” (Pfizer Inc., priority 2012, dated 2021).
Like-named read-outs stand apart in the source and are kept apart here.

Legend:
[1] = test system: human PSMA; test: IFNγ ELISPOT, breaking of immune tolerance in human PSMA transgenic mice; assay type: in vivo, mouse
Protocol: Eight-to-10 week-old transgenic mice were immunized using PMED method with various PSMA DNA constructs in a prime/boost/boost regimen, two weeks apart between each vaccination. Alternatively, mice were primed with adenovirus vectors encoding the PSMA antigen at 1×10^9 viral particles in 50 μl (PBS) by intramuscular injection. The adenovirus vector (pShuttle-CMV vector from Stratagene) was modified to contain NheI and BgIII restriction sites within the multiple cloning site. The DNA encoding human PSMA modified was then restriction digested with NheI and BgIII, ligated into this vector and sequence confirmed. The pShuttle human PSMA modified vector was then recombined with the pAdEasy-1 vector and virus was propagated according to the AdEasy system (Stratagene). Twenty-days later, they were boosted with PMED as described above. In each of the regimens used, antigen specific T cell response was measured 7 days after the last immunization in an interferon-gamma (IFNγ) ELISPOT assay. The ELISPOT assay is similar to the sandwich enzyme-linked immunosorbent assay (ELISA). Briefly, a capture antibody specific to IFNγ BD Bioscience, #51-2525kc) is coated onto a polyvinylidene fluoride (PVDF) membrane in a microplate overnight at 4° C. The plate is blocked with serum/protein to prevent nonspecific binding to the antibody. […]

[2] = design: species or system Indian Rhesus macaques; settings: rhesus monkey, in vivo, 10 mg/kg
Protocol: Three animals per treatment group were injected with the anti-CTLA-4 antibody Tremelimumab at 10 mg/kg, either with a single intravenous injection into the saphenous vein or multiple 0.2 ml intradermal bilateral injections in the upper thigh in proximity to the inguinal draining lymph nodes. Blood samples were collected at 0, 1, 2, 4, 8, 12, 24, and 48 hrs post injection into 2.0 ml vaccutainer tubes containing lithium heparin as the anticoagulant. Plasma was collected from the supernatant in the vaccutainer tubes after centrifugation at 1500×g at 4° C. for 10 min. The levels of Tremelimumab in the plasma was measured by a quantitative ELISA assay according to the procedure provided below.
Tremelimumab Quantitative ELISA Assay Procedure. The 384-well high bind assay plates (VWR-Greiner Bio-One Cat #82051-264) were coated with 25 μl/well of CD-152 (CTLA-4; Ancell Immunology Research Products Cat #501-020) at 1.0 μg/ml in 100 mM carbonate-bicarbonate coating buffer and incubated overnight at 4° C. […] The colorimetric reaction was stopped by addition of 12.5 μL/well 1N Sulfuric acid and the absorbance then read at 450 nm. The amount of Tremelimumab in each sample was quantified using the standard curve with 0.27 to 67 ng/mL used as the quantitative range.

Substance | # of positive ([1]; Table 12, human PSMA transgenic mice with SFC>50 / mice tested) | PSMA transgenic mice able to mount a T cell response to human PSMA ([1]; human PSMA transgenic mice, SFC>50 positive) | AUC0-24 [2] | AUC0-24 ([2]; iv)
PSMA modified: membrane-bound polypeptide of amino acids 15-750 of human PSMA, SEQ ID NO: 9; tested as DNA construct | 2/10 | 20% |  | 
Tremelimumab: fully human IgG2 anti-CTLA-4 monoclonal antibody, CAS 745013-59-6, SEQ ID NOs:42 and 43 |  |  | 4900 µg·h/mL | 7200 µg·h/mL
